Test results from ChEMBL document CHEMBL2331080, “Further characterization of a putative serine protease contributing to the γ-secretase cleavage of β-amyloid precursor protein” (Bioorg Med Chem, 2013).
Calls of active or inactive are those of the source. The calls are words filed in the database; no cut-off is given here.

Experiments:
HEK293 [1] = assay: Cytotoxicity against HEK293 cells overexpressing betaAPP K670N/M671L mutant at 60 uM by LDH release assay; format: cell-based; conditions: human, hek293, 60 µM
HEK293 [2] = assay: Cytotoxicity against HEK293 cells overexpressing betaAPP K670N/M671L mutant at 10 uM by LDH release assay; format: cell-based; conditions: human, hek293, 10 µM
HEK293 [3] = assay: Cytotoxicity against HEK293 cells overexpressing betaAPP K670N/M671L mutant at 10 to 30 uM by LDH release assay; format: cell-based; conditions: human, hek293, 30 µM
[4] = target: T1, Gamma-secretase (Homo sapiens) (UniProt Q96BI3+Q9NZ42+Q8WW43+P49768+Q92542+P49810); assay: Inhibition of gamma-secretase-mediated betaAPP K670N/M671L mutant cleavage in HEK293 cells assessed as inhibition of amyloid beta40/42 production at 10 to 30 uM after 8 hrs by chemiluminescence assay relative to control; format: cell-based
[5] = target: T1, Gamma-secretase (Homo sapiens); assay: Modulation of gamma-secretase-mediated betaAPP K670N/M671L mutant cleavage in HEK293 cells assessed as inhibition of amyloid beta40/42 production at 10 to 30 uM after 8 hrs by chemiluminescence assay; format: cell-based
[6] = target: T1, Gamma-secretase (Homo sapiens); assay: Inhibition of gamma-secretase-mediated betaAPP K670N/M671L mutant cleavage in HEK293 cells assessed as inhibition of amyloid beta40/42 production at 60 uM after 8 hrs by chemiluminescence assay relative to control; format: cell-based
[7] = target: T1, Gamma-secretase (Homo sapiens); assay: Inhibition of presenilin-dependent gamma secretase complex in HEK293 solubilized membranes using Flag-C100 as substrate assessed as inhibition of amyloid beta40/42 production at 60 uM after 16 hrs by Western blotting analysis; format: cell membranes
[8] = Half life of the compound in buffer; format: physicochemical
[9] = Half life of the compound in hepes buffer; format: physicochemical
Gamma-secretase = assay: Inhibition of gamma-secretase-mediated betaAPP K670N/M671L mutant cleavage in HEK293 cells assessed as inhibition of amyloid beta40/42 production after 8 hrs by chemiluminescence assay; format: cell-based, Homo sapiens
[10] = target: T2, Proteasome Macropain subunit MB1 (Homo sapiens, UniProt P28074); assay: Inhibition of chymotrypsin-like activity of Proteasome subunit beta 5 (unknown origin) assessed as inhibition of beta-amyloid production by cell-based assay
T2 sequence (P28074 whole entry): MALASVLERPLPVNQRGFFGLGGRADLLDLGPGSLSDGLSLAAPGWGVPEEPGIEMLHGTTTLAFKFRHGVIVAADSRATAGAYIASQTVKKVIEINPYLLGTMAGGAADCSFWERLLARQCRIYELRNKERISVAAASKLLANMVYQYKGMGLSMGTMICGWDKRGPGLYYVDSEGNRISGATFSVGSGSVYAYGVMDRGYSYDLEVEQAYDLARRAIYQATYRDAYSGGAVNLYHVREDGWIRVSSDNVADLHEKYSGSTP

[11] = target: T1, Gamma-secretase (Homo sapiens); assay: Modulation of gamma-secretase-mediated betaAPP K670N/M671L mutant cleavage in HEK293 cells assessed as inhibition of amyloid beta40/42 production at 60 uM after 8 hrs by chemiluminescence assay; format: cell-based

## CCC(C)Oc1oc(=O)c2cc(N)ccc2c1Cl (centres undefined)
HEK293 [1]
  Activity: Toxic
HEK293 [2]
  Activity: Non-toxic

## COc1oc(=O)c2cc(NCc3ccc(OCc4ccccc4)cc3)ccc2c1Cl
HEK293 [3]
  Activity: Non-toxic
[4]
  inhibition: > 50%
[5]
  inhibition: inactive

## COc1oc(=O)c2cc(NC(=O)OC34CC5CC(CC(C5)C3)C4)ccc2c1Cl
[6]
  inhibition: inactive

## CC(C)C[C@H](NC(=O)[C@H](Cc1ccccc1)NC(=O)c1cnccn1)B(O)O
[7]
  inhibition: inactive
[6]
  inhibition: inactive

## CCCCCCCC(=O)Nc1ccc2c(Cl)c(OC)oc(=O)c2c1
[6]
  inhibition: inactive

## CCCCC(CC)CNc1ccc2c(Cl)c(OC)oc(=O)c2c1 (centres undefined)
HEK293 [3]
  Activity: Toxic
[4]
  inhibition: > 50%

## COc1cc2ccc(N)cc2c(=O)o1
[6]
  inhibition: inactive

## COc1oc(=O)c2cc(Nc3ccccc3)ccc2c1Cl
HEK293 [1]
  Activity: Toxic

## COc1oc(=O)c2cc(NC(=O)OCC(Cl)(Cl)Cl)ccc2c1Cl
[6]
  inhibition: inactive

## C=CCOC(=O)Nc1ccc2c(Cl)c(OC)oc(=O)c2c1
[6]
  inhibition: inactive

## CCC(C)Oc1oc(=O)c2cc([N+](=O)[O-])ccc2c1Cl (centres undefined)
[8]
  half-life: < 0.333 h
[6]
  inhibition: inactive

## COc1oc(=O)c2cc(NCCCc3ccccc3)ccc2c1Cl
HEK293 [1]
  Activity: Non-toxic
[6]
  inhibition: inactive

## COc1oc(=O)c2cc(NCc3cccc4ccccc34)ccc2c1Cl
HEK293 [1]
  Activity: Non-toxic
[6]
  inhibition: > 50%

## CC(C)C[C@@H](NC(=O)[C@H](Cc1ccccc1)NC(=O)c1cnccn1)B1O[C@H]2C[C@H]3C[C@H](C3(C)C)[C@@]2(C)O1
[7]
  inhibition: inactive
[6]
  inhibition: inactive

## CCOc1oc(=O)c2cc(N)ccc2c1Cl
[6]
  inhibition: > 50%
[9]
  half-life: 3.5 h

## COc1oc(=O)c2cc(NC(=O)OCC3c4ccccc4-c4ccccc43)ccc2c1Cl
[6]
  inhibition: inactive

## COc1oc(=O)c2cc(NC(=O)OCc3ccccc3)ccc2c1Cl
[6]
  inhibition: inactive

## COc1oc(=O)c2cc(NCc3ccccc3[N+](=O)[O-])ccc2c1Cl
HEK293 [3]
  Activity: Non-toxic
[4]
  inhibition: > 50%
[5]
  inhibition: inactive

## CCOC(=O)Nc1ccc2c(Cl)c(OC)oc(=O)c2c1
[6]
  inhibition: inactive

## CCCCCCNc1ccc2c(Cl)c(OC)oc(=O)c2c1
HEK293 [1]
  Activity: Non-toxic
[6]
  inhibition: > 50%

## COc1oc(=O)c2cc(NCC3CCCCC3)ccc2c1Cl
HEK293 [3]
  Activity: Toxic
[4]
  inhibition: > 50%

## COc1oc(=O)c2cc(NCC(C)C)ccc2c1Cl
HEK293 [3]
  Activity: Non-toxic
[4]
  inhibition: > 50%
[6]
  inhibition: > 50%
Gamma-secretase
  IC50: 10 µM

## COc1oc(=O)c2cc(NCC(C)(C)C)ccc2c1Cl
HEK293 [1]
  Activity: Toxic

## COc1oc(=O)c2cc(N)ccc2c1Cl
[9]
  half-life: 3.5 h

## CC(C)C[C@H](NC(=O)[C@H](Cc1ccccc1)NC(=O)c1cnccn1)B1O[C@H]2C[C@H]3C[C@H](C3(C)C)[C@@]2(C)O1
[7]
  inhibition: inactive
[6]
  inhibition: inactive

## COc1oc(=O)c2cc(NC(C)=O)ccc2c1Cl
[6]
  inhibition: inactive

## O=c1oc(OCCBr)cc2ccc([N+](=O)[O-])cc12
[6]
  inhibition: > 50%

## COc1oc(=O)c2cc(NC/C=C\c3ccccc3)ccc2c1Cl
HEK293 [1]
  Activity: Non-toxic
[6]
  inhibition: inactive

## CC(C)C[C@@H](NC(=O)[C@H](Cc1ccccc1)NC(=O)c1ccccc1)B1O[C@H]2C[C@H]3C[C@H](C3(C)C)[C@@]2(C)O1
[7]
  inhibition: inactive
[6]
  inhibition: > 50%

## CCNc1ccc2c(Cl)c(OC)oc(=O)c2c1
Gamma-secretase
  IC50: 10 µM

## CCOc1oc(=O)c2cc([N+](=O)[O-])ccc2c1Cl
[8]
  half-life: < 0.333 h
[6]
  inhibition: inactive

## CC(C)C[C@H](NC(=O)[C@H](Cc1ccccc1)NC(=O)c1ccccc1)B(O)O
[10]
  IC50: 0.009 µM
[7]
  inhibition: inactive
[6]
  inhibition: > 50%

## CC(C)C[C@@H](NC(=O)[C@H](Cc1ccccc1)NC(=O)c1cnccn1)B(O)O
[7]
  inhibition: inactive
[6]
  inhibition: inactive

## COc1oc(=O)c2cc(NCCC(C)(C)C)ccc2c1Cl
HEK293 [3]
  Activity: Toxic
[4]
  inhibition: > 50%

## COc1oc(=O)c2cc(NCc3ccc([N+](=O)[O-])cc3)ccc2c1Cl
HEK293 [3]
  Activity: Non-toxic
[4]
  inhibition: > 50%
[6]
  inhibition: > 50%
Gamma-secretase
  IC50: 10 µM

## COc1oc(=O)c2cc(NC(=O)C(F)(F)C(F)(F)F)ccc2c1Cl
[6]
  inhibition: inactive

## COc1oc(=O)c2cc(NC(=O)C(C)(C)C)ccc2c1Cl
[11]
  inhibition: Active

## COc1oc(=O)c2cc(NC(=O)OC(C)(C)C)ccc2c1Cl
[6]
  inhibition: inactive

## COc1oc(=O)c2cc(NCc3ccccc3)ccc2c1Cl
HEK293 [1]
  Activity: Non-toxic
[6]
  inhibition: inactive

## COc1oc(=O)c2cc(NCCC(C)C)ccc2c1Cl
HEK293 [1]
  Activity: Non-toxic
[6]
  inhibition: > 50%

## COc1oc(=O)c2cc(NC(=O)CCCC(=O)O)ccc2c1Cl
[6]
  inhibition: inactive

## COc1oc(=O)c2cc(Nc3cccc([N+](=O)[O-])c3)ccc2c1Cl
HEK293 [1]
  Activity: Non-toxic
[6]
  inhibition: inactive

## COc1oc(=O)c2cc(NCc3ccc4ccccc4c3)ccc2c1Cl
HEK293 [3]
  Activity: Non-toxic
[4]
  inhibition: > 50%
[5]
  inhibition: inactive

## COCCOc1cc2ccc(N)cc2c(=O)o1
[6]
  inhibition: inactive

## COc1ccc(CNc2ccc3c(Cl)c(OC)oc(=O)c3c2)cc1
HEK293 [1]
  Activity: Non-toxic
[6]
  inhibition: inactive

## CC(C)C[C@@H](NC(=O)[C@H](Cc1ccccc1)NC(=O)c1ccccc1)B(O)O
[7]
  inhibition: inactive
[6]
  inhibition: > 50%

## CCCCOc1oc(=O)c2cc([N+](=O)[O-])ccc2c1Cl
[8]
  half-life: < 0.333 h
[6]
  inhibition: inactive

## CCCCOc1oc(=O)c2cc(N)ccc2c1Cl
HEK293 [1]
  Activity: Toxic
HEK293 [2]
  Activity: Non-toxic

## CC(C)C[C@H](NC(=O)[C@H](Cc1ccccc1)NC(=O)c1ccccc1)B1O[C@H]2C[C@H]3C[C@H](C3(C)C)[C@@]2(C)O1
[7]
  inhibition: inactive
[6]
  inhibition: > 50%
Gamma-secretase
  IC50: 10 µM

## CCCCCCCCCNc1ccc2c(Cl)c(OC)oc(=O)c2c1
HEK293 [3]
  Activity: Non-toxic
[4]
  inhibition: > 50%
[11]
  inhibition: Active

## Nc1ccc2cc(OCCBr)oc(=O)c2c1
[6]
  inhibition: inactive

## COCCOc1cc2ccc([N+](=O)[O-])cc2c(=O)o1
[6]
  inhibition: > 50%

## COc1cc2ccc([N+](=O)[O-])cc2c(=O)o1
[11]
  inhibition: Active
